What all share (type): physicochemical
The nature of data set [1]: Fluorescence quantum yield measurement. The following applies: liposome solution, pH 7.0 PIPES. As for the experimental part: The quantum yields of the free Formula I, Formula II, and/or a derivative thereof (e.g., for example probe 8) was determined using quinine sulfate as a reference (Df=0.546 in 1.0 N H2SO4). The quantum yield was derived from a 5-point measurement in Chelex®-treated PIPES buffer containing 100 μM of 4:1 DMPC:DMPG liposomes (pH 7.0, 10 mM PIPES, 0.1 M KCl, 25° C.). For the free compound 1 (e.g., for example probe 8 in FIG. 4H), the solutions were supplemented with 20 μM of EDTA (from a 3.0 mM stock solution in DI H2O). The quantum yield of the probe 8-Zn(II) complex was independently determined under the same conditions in the presence of 1.1 molar equivalent of Zn(OTf)2. The quantum yield of the Zn(II) complex was confirmed with fluorescence quantum yield ratio. The fluorescence quantum yields were calculated as an average of two independent measurements.

Data set [2] in a line: Fluorometric Zn(II) titration in PIPES buffer with DMPC:DMPG liposomes. The following applies: pH 7.0 buffer, 100 μM liposomes, excitation at 405 nm. As for the experimental part: To investigate the capability of Formula I, Formula II, and/or a derivative thereof (e.g., for example probe 8) as a dual-mode excitable Zn(II)-selective fluorescent indicator, fluorometric Zn(II)-titrations were performed with excitation at 405 nm. Comprehensive spectroscopic analysis of Formula I, Formula II, and/or a derivative thereof (e.g., for example probe 8) was performed in the presence of liposomes as a biological model-membranes composed of a 4:1 ratio of zwitterionic dimyristoyl […] (DMPC) and anionic dimyristoyl phosphatidylglycerol (DMPG). The probe was directly diluted from a DMSO stock solution into the pH 7.0 buffer containing 100 μM liposomes. […]
A solution of Formula I, Formula II, and/or a derivative thereof (e.g., for example probe 8) (10 μM) in analytical grade MeOH prepared in a quartz cuvette with a 1-cm pathlength was titrated with Zn(OTf)2 (from a 0.3 mM aqueous stock solution) in 1.0 μM (0.1 molar equiv.) increments. After each aliquot of Zn(II), the solution was equilibrated for 1 minute by magnetic stirring, and an absorbance (spectral window: 250-500 nm) and fluorescence spectrum (excitation at 395 nm, spectral window 405-705 nm) were acquired. […] After each aliquot of Zn(II), the solution was equilibrated for 1 minute by magnetic stirring, and a fluorescence spectrum (excitation: 405 nm, spectral window 420-700 nm) was acquired.

Data set [3] in a line: Metal-ion selectivity measurement (emission-ratiometric response). The following applies: liposomes, pH 7.0. How it is done:
FIG. 5C illustrates an exemplary table providing exemplary photophysical properties of Formula I, Formula II, and/or a derivative thereof (e.g., for example probe 8) and its Zn(II)-probe complex in PIPES buffer containing 100 μM of 4:1 DMPC:DMPG liposomes (pH 7.0, 10 mM PIPES, 0.1 M KCl, 25° C.). The fluorescence response of the probe 8 (10 PM) was measured in the presence of 100 μM 4:1 DMPC:DMPG liposomes (pH 7.0, 10 mM PIPES, 0.1 M KCl, 25° C.) and an excess of selected biologically relevant divalent metal ions (FIG. 5A). […]
A solution of Formula I, Formula II, and/or a derivative thereof (e.g., for example probe 8) (10 μM) in Chelex®-PIPES buffer (10 mM, 0.1 M KCl, pH 7.0, 25° C.) containing 100 μM of liposomes (4:1 mixture of DMPC and DMPG) prepared in a quartz cuvette with a 1-cm pathlength. A fluorescence spectrum was acquired over the spectral window of 415-700 nm with excitation at 405 nm. Under magnetic stirring, the solution was supplemented with each divalent metal cation (8.0 μM, which corresponds to 80% fractional saturation of the probe, or 2.0 mM Ca(II) and Mg(II) ions), and a fluorescence spectrum was immediately acquired. […] The fluorescence spectrum was acquired after 10 min equilibration to ensure complete formation of the probe 8 Zn(II)-complex. […]

This note sets out measurements from patent US20240410831A1, “Multi-Mode Zinc-Selective Emission-Ratiometric Fluorescent Probes for Biological Application” (Georgia Tech Research Corporation, priority 2023, published 2024).

Turning to `COc1ccc2c(c1)C(C)(C)c1nc(-c3cccc(CN(Cc4ncccn4)Cc4ncccn4)n3)sc1-2` [probe 8], the quantum yield was 78% in data set [1] (Zn(II)-probe complex) and 72% in data set [1] (free probe). Further, the figures for the emission maximum in data set [2] (after Zn(II) addition) and in data set [2] (free probe) were 515 nm and 480 nm, respectively. For the same molecule, the “fluorescence response to Ca(II) and Mg(II)” value in data set [3] (2.0 mM of either metal ion) is recorded as “Neither Ca(II) nor Mg(II) resulted in any significant fluorescence change”. In addition, the “fluorescence response to divalent transition metals” value in data set [3] (0.8 molar equivalents of metal, 10 μM probe) is listed as “quenching of the fluorescence”.
